SMILES strings stand for the structures.

The values that follow come from ChEMBL document CHEMBL1135136, “Carbonic anhydrase inhibitors. Preparation of potent sulfonamides inhibitors incorporating bile acid tails” (Bioorg Med Chem Lett, 2002).

One test addresses Carbonic anhydrase 2 (Homo sapiens, UniProt P00918).
For another test, the target named is Carbonic anhydrase 1 (Homo sapiens, UniProt P00915).
For another test, the target named is T1, Carbonic anhydrase 4 (Bos taurus, UniProt Q95323).
T1 sequence (Q95323 whole entry): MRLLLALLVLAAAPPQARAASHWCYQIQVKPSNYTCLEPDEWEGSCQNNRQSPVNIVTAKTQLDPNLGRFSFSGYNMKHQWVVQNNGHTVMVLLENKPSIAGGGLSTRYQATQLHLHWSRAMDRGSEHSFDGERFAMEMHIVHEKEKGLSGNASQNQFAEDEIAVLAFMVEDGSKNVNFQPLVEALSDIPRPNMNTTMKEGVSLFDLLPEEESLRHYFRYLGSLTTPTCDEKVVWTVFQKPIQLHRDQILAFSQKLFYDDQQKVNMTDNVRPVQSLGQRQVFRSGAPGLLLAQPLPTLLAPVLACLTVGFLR

Carbonic anhydrase 1, sequence (P00915 whole entry): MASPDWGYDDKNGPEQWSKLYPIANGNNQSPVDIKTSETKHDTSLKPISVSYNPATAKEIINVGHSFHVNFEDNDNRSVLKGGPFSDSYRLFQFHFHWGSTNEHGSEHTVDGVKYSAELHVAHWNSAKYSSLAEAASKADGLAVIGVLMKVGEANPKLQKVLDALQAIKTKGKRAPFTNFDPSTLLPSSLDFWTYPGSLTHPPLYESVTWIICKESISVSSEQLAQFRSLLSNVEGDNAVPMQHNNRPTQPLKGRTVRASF
Description for Carbonic anhydrase 1: Inhibitory activity against human recombinant carbonic anhydrase I (CA1)
Description for Carbonic anhydrase 2: Inhibitory activity against human recombinant carbonic anhydrase II (CA2)
Description for Carbonic anhydrase 4: Inhibitory activity against bovine carbonic anhydrase IV (CA4), obtained from bovine lung microsomes

Consider `C[C@H](CCC(=O)Nc1cc(Cl)c(S(N)(=O)=O)cc1S(N)(=O)=O)[C@H]1CC[C@H]2[C@@H]3CC[C@@H]4C[C@H](O)CC[C@]4(C)[C@H]3C[C@H](O)[C@]12C`, for which the Ki at Carbonic anhydrase 2 came to 55 nM; at Carbonic anhydrase 1 it was 225 nM; at Carbonic anhydrase 4 it was 121 nM.
On the same counts, the results for `C[C@H](CCC(=O)Nc1ccc(S(N)(=O)=O)cc1Br)[C@H]1CC[C@H]2[C@@H]3CC[C@@H]4C[C@H](O)CC[C@]4(C)[C@H]3C[C@H](O)[C@]12C` are 31 nM, 365 nM and 50 nM.
Regarding `C[C@H](CCC(=O)OCCc1ccc(S(N)(=O)=O)cc1)[C@H]1CC[C@H]2[C@@H]3C(=O)C[C@@H]4CC(=O)CC[C@]4(C)[C@H]3CC(=O)[C@]12C`, the Ki at Carbonic anhydrase 2 worked out at 50 nM; at Carbonic anhydrase 1 it was 415 nM; on Carbonic anhydrase 4, 123 nM.
Take `C[C@H](CCC(=O)Nc1ccc(S(N)(=O)=O)cc1F)[C@H]1CC[C@H]2[C@@H]3[C@H](O)C[C@@H]4C[C@H](O)CC[C@]4(C)[C@H]3C[C@H](O)[C@]12C`: the Ki at Carbonic anhydrase 2 was determined as 50 nM; at Carbonic anhydrase 1 it was 1280 nM; on Carbonic anhydrase 4, 133 nM.
With `C[C@H](CCC(=O)NCCC(=O)Nc1nnc(S(N)(=O)=O)s1)[C@H]1CC[C@H]2[C@@H]3C(=O)C[C@@H]4CC(=O)CC[C@]4(C)[C@H]3CC(=O)[C@]12C`, the Ki at Carbonic anhydrase 2 came out at 1.1 nM; at Carbonic anhydrase 1 it was 22 nM; at Carbonic anhydrase 4 it was 7 nM.
On the same counts, the results for `C[C@H](CCC(=O)Nc1ccc(S(N)(=O)=O)cc1I)[C@H]1CC[C@H]2[C@@H]3[C@H](O)C[C@@H]4C[C@H](O)CC[C@]4(C)[C@H]3CC[C@]12C` are 55 nM, 521 nM and 110 nM.
In the case of `C[C@H](CCC(=O)Nc1nnc(S(N)(=O)=O)s1)[C@H]1CC[C@H]2[C@@H]3CC[C@@H]4C[C@H](O)CC[C@]4(C)[C@H]3CC[C@]12C`, the Ki at Carbonic anhydrase 2 worked out at 10 nM; at Carbonic anhydrase 1, 210 nM; at Carbonic anhydrase 4 it was 28 nM.
On the same counts, the results for `C[C@H](CCC(=O)Nc1ccc(S(N)(=O)=O)cc1)[C@H]1CC[C@H]2[C@@H]3[C@@H](O)C[C@@H]4C[C@H](O)CC[C@]4(C)[C@H]3CC[C@]12C` are 71 nM, 4000 nM and 164 nM.
For `C[C@H](CCC(=O)Nc1ccc(S(N)(=O)=O)cc1Cl)[C@H]1CC[C@H]2[C@@H]3[C@H](O)C[C@@H]4C[C@H](O)CC[C@]4(C)[C@H]3C[C@H](O)[C@]12C`, in that order: 82 nM, 970 nM and 168 nM.
On the same counts, the results for `C[C@H](CCC(=O)Nc1ccc(S(N)(=O)=O)cc1F)[C@H]1CC[C@H]2[C@@H]3C(=O)C[C@@H]4CC(=O)CC[C@]4(C)[C@H]3CC(=O)[C@]12C` are 15 nM, 210 nM and 28 nM.
In the case of `C[C@H](CCC(=O)Nc1cccc(S(N)(=O)=O)c1)[C@H]1CC[C@H]2[C@@H]3[C@H](O)C[C@@H]4C[C@H](O)CC[C@]4(C)[C@H]3C[C@H](O)[C@]12C`, the inhibition constant Ki was determined as 218 nM on Carbonic anhydrase 2, 23000 nM at Carbonic anhydrase 1 and 1350 nM at Carbonic anhydrase 4.
On the same counts, the results for `C[C@H](CCC(=O)Nc1ccc(S(N)(=O)=O)cc1Br)[C@H]1CC[C@H]2[C@@H]3C(=O)C[C@@H]4CC(=O)CC[C@]4(C)[C@H]3CC(=O)[C@]12C` are 9 nM, 66 nM and 28 nM.
For `C[C@H](CCC(=O)NNc1ccc(S(N)(=O)=O)cc1)[C@H]1CC[C@H]2[C@@H]3[C@H](O)C[C@@H]4C[C@H](O)CC[C@]4(C)[C@H]3C[C@H](O)[C@]12C`, in that order: 315 nM, 32100 nM and 1050 nM.
On the same counts, the results for `C[C@H](CCC(=O)NCc1ccc(S(N)(=O)=O)cc1)[C@H]1CC[C@H]2[C@@H]3[C@@H](O)C[C@@H]4C[C@H](O)CC[C@]4(C)[C@H]3CC[C@]12C` are 21 nM, 550 nM and 40 nM.
In the case of `C[C@H](CCC(=O)/N=c1\sc(S(N)(=O)=O)nn1C)[C@H]1CC[C@H]2[C@@H]3[C@H](O)C[C@@H]4C[C@H](O)CC[C@]4(C)[C@H]3CC[C@]12C`, the Ki stood at 13 nM at Carbonic anhydrase 2, 514 nM at Carbonic anhydrase 1 and 100 nM on Carbonic anhydrase 4.
Turning to `C[C@H](CCC(=O)Nc1ccc(S(N)(=O)=O)cc1F)[C@H]1CC[C@H]2[C@@H]3[C@@H](O)C[C@@H]4C[C@H](O)CC[C@]4(C)[C@H]3CC[C@]12C`, the figures for the Ki on Carbonic anhydrase 2, at Carbonic anhydrase 1 and on Carbonic anhydrase 4 were 11 nM, 180 nM and 24 nM, respectively.
For `C[C@H](CCC(=O)Nc1ccc(S(N)(=O)=O)cc1F)[C@H]1CC[C@H]2[C@@H]3CC[C@@H]4C[C@H](O)CC[C@]4(C)[C@H]3CC[C@]12C`, in that order: 29 nM, 360 nM and 36 nM.
On the same counts, the results for `C[C@H](CCC(=O)Nc1ccc(S(N)(=O)=O)cc1)[C@H]1CC[C@H]2[C@@H]3[C@H](O)C[C@@H]4C[C@H](O)CC[C@]4(C)[C@H]3CC[C@]12C` are 186 nM, 20000 nM and 420 nM.
`C[C@H](CCC(=O)NCCc1ccc(S(N)(=O)=O)cc1)[C@H]1CC[C@H]2[C@@H]3[C@@H](O)C[C@@H]4C[C@H](O)CC[C@]4(C)[C@H]3CC[C@]12C`: the values for the Ki at Carbonic anhydrase 2, on Carbonic anhydrase 1 and on Carbonic anhydrase 4 were 14 nM, 295 nM and 34 nM, respectively.
Take `C[C@H](CCC(=O)Nc1ccccc1S(N)(=O)=O)[C@H]1CC[C@H]2[C@@H]3C(=O)C[C@@H]4CC(=O)CC[C@]4(C)[C@H]3CC(=O)[C@]12C`: the Ki at Carbonic anhydrase 2 came out at 170 nM; at Carbonic anhydrase 1 it was 8100 nM; at Carbonic anhydrase 4 it was 505 nM.
On the same counts, the results for `C[C@H](CCC(=O)Nc1cc(Cl)c(S(N)(=O)=O)cc1S(N)(=O)=O)[C@H]1CC[C@H]2[C@@H]3CC[C@@H]4C[C@H](O)CC[C@]4(C)[C@H]3CC[C@]12C` are 54 nM, 200 nM and 82 nM.
For `C[C@H](CCC(=O)NCCc1ccc(S(N)(=O)=O)cc1)[C@H]1CC[C@H]2[C@@H]3C(=O)C[C@@H]4CC(=O)CC[C@]4(C)[C@H]3CC(=O)[C@]12C`, in that order: 18 nM, 285 nM and 29 nM.
Take `C[C@H](CCC(=O)Nc1ccc(S(N)(=O)=O)cc1Cl)[C@H]1CC[C@H]2[C@@H]3CC[C@@H]4C[C@H](O)CC[C@]4(C)[C@H]3CC[C@]12C`: the Ki on Carbonic anhydrase 2 stood at 47 nM; on Carbonic anhydrase 1, 720 nM; on Carbonic anhydrase 4, 54 nM.
On the same counts, the results for `C[C@H](CCC(=O)Nc1ccccc1S(N)(=O)=O)[C@H]1CC[C@H]2[C@@H]3[C@H](O)C[C@@H]4C[C@H](O)CC[C@]4(C)[C@H]3CC[C@]12C` are 245 nM, 22100 nM and 900 nM.
For `C[C@H](CCC(=O)OCCc1ccc(S(N)(=O)=O)cc1)[C@H]1CC[C@H]2[C@@H]3CC[C@@H]4C[C@H](O)CC[C@]4(C)[C@H]3CC[C@]12C`, in that order: 81 nM, 625 nM and 310 nM.
On the same counts, the results for `C[C@H](CCC(=O)Nc1c(S(N)(=O)=O)cc(S(N)(=O)=O)c(Cl)c1Cl)[C@H]1CC[C@H]2[C@@H]3[C@@H](O)C[C@@H]4C[C@H](O)CC[C@]4(C)[C@H]3CC[C@]12C` are 10 nM, 59 nM and 29 nM.
As for `C[C@H](CCC(=O)Nc1ccc(S(N)(=O)=O)cc1I)[C@H]1CC[C@H]2[C@@H]3CC[C@@H]4C[C@H](O)CC[C@]4(C)[C@H]3CC[C@]12C`, the Ki came to 32 nM at Carbonic anhydrase 2, 120 nM at Carbonic anhydrase 1 and 69 nM at Carbonic anhydrase 4.
For `C[C@H](CCC(=O)Nc1ccc(S(N)(=O)=O)cc1Br)[C@H]1CC[C@H]2[C@@H]3[C@H](O)C[C@@H]4C[C@H](O)CC[C@]4(C)[C@H]3CC[C@]12C`, in that order: 34 nM, 617 nM and 53 nM.
For `C[C@H](CCC(=O)/N=c1\sc(S(N)(=O)=O)nn1C)[C@H]1CC[C@H]2[C@@H]3CC[C@@H]4C[C@H](O)CC[C@]4(C)[C@H]3CC[C@]12C`, in that order: 8 nM, 205 nM and 21 nM.
On the same counts, the results for `C[C@H](CCC(=O)OCCc1ccc(S(N)(=O)=O)cc1)[C@H]1CC[C@H]2[C@@H]3CC[C@@H]4C[C@H](O)CC[C@]4(C)[C@H]3C[C@H](O)[C@]12C` are 78 nM, 885 nM and 300 nM.
As to `C[C@H](CCC(=O)NCc1ccc(S(N)(=O)=O)cc1)[C@H]1CC[C@H]2[C@@H]3C(=O)C[C@@H]4CC(=O)CC[C@]4(C)[C@H]3CC(=O)[C@]12C`, the Ki on Carbonic anhydrase 2 turned out to be 26 nM; on Carbonic anhydrase 1, 600 nM; on Carbonic anhydrase 4, 40 nM.
For `C[C@H](CCC(=O)Nc1cccc(S(N)(=O)=O)c1)[C@H]1CC[C@H]2[C@@H]3[C@H](O)C[C@@H]4C[C@H](O)CC[C@]4(C)[C@H]3CC[C@]12C`, in that order: 210 nM, 21400 nM and 1250 nM.
